Test results taken from patent publication US20130217702A1 (Richter Gedeon Nyrt., priority 2010, published 2013).
pIC50, pKi: −log10 of the molar value.

Legend:
[1] = molecular target: T1, recombinant human B1 receptors (Homo sapiens, UniProt P46663); assay: Functional assay: antagonist potency by cytosolic calcium measurement (plate reader fluorimeter) in CHO-B1 cells, agonist LysDABK; type: cell-based; settings: CHO-B1 cells, inhibition of LysDABK (EC80)-evoked [Ca2+]i elevation; read-out: B1 func.
T1 construct: host or cells: CHO (CHO-B1)
T1 sequence (P46663 1-353): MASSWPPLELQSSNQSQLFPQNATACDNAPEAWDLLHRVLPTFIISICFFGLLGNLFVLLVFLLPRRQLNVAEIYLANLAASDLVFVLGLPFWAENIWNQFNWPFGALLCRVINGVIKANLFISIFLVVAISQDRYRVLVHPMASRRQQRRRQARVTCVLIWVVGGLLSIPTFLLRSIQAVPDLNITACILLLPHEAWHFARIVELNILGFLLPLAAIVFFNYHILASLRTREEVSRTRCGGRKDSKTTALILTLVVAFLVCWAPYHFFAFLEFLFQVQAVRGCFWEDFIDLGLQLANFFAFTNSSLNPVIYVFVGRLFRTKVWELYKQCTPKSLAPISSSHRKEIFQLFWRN
Procedure: Assessment of Antagonist Potency at B1 Receptors In Vitro by Measurement of Cytosolic Calcium Ion Concentration with a Plate Reader Fluorimeter in Cells Expressing Recombinant Human B1 Receptors
Chinese hamster ovary (CHO) cells stably expressing recombinant human B1 (CHO-B1, Euroscreen) receptors were cultured in Dulbecco's Modified Eagle's Medium (DMEM) containing 10% Fetal Calf Serum (FCS), 100 U/ml penicillin, 0.1 mg/ml streptomycin, 0.25 μg/ml amphotericin B, 1% Minimum Essential Medium Eagle (MEM), non essential amino acid solution, 600 μg/ml G418. Cells were kept at 37° C. in a humidified incubator in an atmosphere of 5% CO2/95% air and were passaged 1:4 three times a week. Cells were plated at 1.5−2.5×10^4 cell/well on standard 96-well microplates, measurements of cytosolic calcium ion concentration ([Ca^2+]i) were carried out 1-2 days after cell plating.
Measurements of [Ca^2+]i were carried out on CHO-B1 cells stably expressing human B1 receptors, respectively. Cells were grown in standard 96-well microplates and before the measurement were loaded with a fluorescent Ca^2+-sensitive dye, fluo-4/AM (2 μM): after removing the culture medium the dye was added to the cells (dissolved in assay buffer: 145 mM NaCl, 5 mM KCl, 2 mM MgCl2, 2 mM CaCl2, 10 mM HEPES, 20 mM D-glucose, 2 mM probenecid, 100 μl/well) and cells were incubated at 37° C. in a humidified incubator in an atmosphere of 5% CO2/95% air for 40-120 min. To stop dye loading cells were washed twice with assay buffer. After washing, various concentrations of the test compounds (diluted in extracellular medium from a DMSO stock solution, final DMSO concentration was <0.1%) or buffer were added to each well depending on the experimental setup. After incubation at 37° C. for 20-25 min. baseline and agonist-evoked changes of [Ca^2+]; were measured column by column with a plate reader fluorimeter (Fluoroskan Ascent, Labsystems). Excitation and detection of emission was carried out from the bottom of the plate. Filters used for Fluo-4: excitation filter 485 nm, emission filter 538 nm. The whole measurement process was performed at 37° C. and was controlled by custom software. Inhibitory potency of the test compounds was assessed by measuring the reduction in the agonist-evoked [Ca^2+]i-elevation in the presence of different concentrations of the compounds. The agonist was LysDABK for CHO-B1 cells. Agonist was applied at an EC80 concentration; the EC80-values were derived from daily determined dose-response curves. Fluorescence data were expressed as ΔF/F (fluorescence change normalized to baseline). All treatments on a single plate were measured in multiple wells. Data from all wells with the same treatment were averaged and the average values were used for analysis. Inhibitory potency of a compound at a single concentration point was expressed as percent inhibition of the control agonist response. Sigmoidal concentration-inhibition curves were fitted to the data (derived from at least three independent experiments) and IC50-values were determined as the concentration that produces half of the maximal inhibition caused by the compound.

[2] = molecular target: T2, human recombinant bradykinin B1 receptor (Homo sapiens, UniProt P46663); assay: Human recombinant bradykinin B1 receptor competitive radioligand binding; settings: hB1 expressed in CHO cells, [3H]-[Des-Arg10] Kallidin radioligand; read-out: B1 binding
T2 construct: host or cells: CHO cells, clone hB1-A5
T2 sequence (P46663 1-353): T1 sequence (P46663 1-353)
Procedure: Assessment of Ligand Binding Affinity to B1 and B2 Receptors In Vitro by Competitive Radioligand Binding Assay
Binding assays were carried out on human recombinant bradykinin) receptors (expressed in CHO cells, hB1-A5) according to the Euroscreen Technical Data Sheet (Cat.No.:ES-091). 20 μg protein/tube was incubated with [3,4-prolyl-3,4-^3H(N)]-[Des-Arg^10] Kallidin as radioligand. Non specific binding was determined in the presence of 10 μM Lys-des-Arg^9-Bradykinin. The final incubation volume was 250 μl. Samples were incubated for 15 min. at 25° C. then were rapidly vacuum filtered through GF/B filters presoaked for at least 1 h in 0.5% PEI. Radioactivity was determined by liquid scintillation spectroscopy.
The ligand displacement by the compounds was determined using a minimum of seven concentrations in triplicate, and experiments were repeated at least two times. The specific radioligand binding is defined as the difference between total binding and the non-specific binding determined in the presence of an excess of unlabelled ligand. Results are expressed as a percent inhibition of specific binding obtained in the presence of RGH-478 or reference drugs. IC50 values (i.e. concentration of compound giving 50% inhibition of specific binding) were calculated from concentration-displacement curves by sigmoidal fitting using GraphPad Prism Software 4.0. Ki values (i.e. inhibition constants) were calculated using the Cheng-Prusoff equation. KD was determined from the Scatchard plot. (Editor-in-chief: Enna, S. J. and Williams, M. Current protocols in pharmacology vol. 1. John Wiley & sons Inc., 1998)

## COc1cc(C(=O)NC2(C(=O)NCc3ccc(-n4c(C(=O)N(C)C)c(Cl)c5ccccc54)cc3)CC2)on1 [Example 35, 3-Chloro-1-{4-[({1-[(3-methoxy-isoxazole-5-carbonyl)-amino]-cyclopropane-carbonyl}-amino)-methyl]-phenyl}-1H-indole-2-carboxylic acid dimethylamide]
[1]
  pIC50: 7.00 to 7.70
[2]
  pKi: > 7.70

## Cn1nnc(-c2cc3ccccc3n2-c2ccc(CNC(=O)C3(NC(=O)C(F)(F)F)CC3)cc2)n1 [Example 36, 1-(2,2,2-Trifluoro-acetylamino)-cyclopropanecarboxylic acid 4-[2-(2-methyl-2H-tetrazol-5-yl)-indol-1-yl]-benzylamide]
[1]
  pIC50: > 7.70
[2]
  pKi: > 7.70

## COc1cc(C(=O)NC2(C(=O)NCc3ccc(-n4c(-c5nnc(C)o5)c(Cl)c5cc(F)ccc54)cc3)CC2)on1 [Example 37, 3-Methoxy-isoxazole-5-carboxylic acid (1-{4-[3-chloro-5-fluoro-2-(5-methyl-[1,3,4]oxadiazol-2-yl)-indol-1-yl]-benzylcarbamoyl}-cyclopropyl)-amide]
[1]
  pIC50: > 7.70
[2]
  pKi: > 7.70

## COc1cc(C(=O)NC2(C(=O)NCc3ccc(-n4c(-c5ncc(C)o5)c(Cl)c5ccccc54)cc3)CC2)on1 [Example 38, 3-Methoxy-isoxazole-5-carboxylic acid (1-{4-[3-chloro-2-(5-methyl-oxazol-2-yl)-indol-1-yl]-benzylcarbamoyl}-cyclopropyl)-amide]
[1]
  pIC50: 7.00 to 7.70
[2]
  pKi: > 7.70

## COc1cc(C(=O)NC2(C(=O)NCc3ccc(-n4c(C#N)c(Cl)c5ccccc54)cc3)CC2)on1 [Example 39, 3-Methoxy-isoxazole-5-carboxylic acid {1-[4-(3-chloro-2-cyano-indol-1-yl)-benzyl-carbamoyl]-cyclopropyl}-amide]
[1]
  pIC50: > 7.70
[2]
  pKi: > 7.70

## Cc1nc(-c2c(Cl)c3ccccc3n2-c2ccc([C@@H](C)NC(=O)C3(NC(=O)C(F)(F)F)CC3)cc2)no1 [Example 40, (R)-1-(2,2,2-Trifluoro-acetylamino)-cyclopropanecarboxylic acid (1-{4-[3-chloro-2-(5-methyl-[1,2,4]oxadiazol-3-yl)-indol-1-yl]-phenyl}-ethyl)-amide]
[1]
  pIC50: > 7.70
[2]
  pKi: > 7.70

## COc1cc(C(=O)NC2(C(=O)N[C@H](C)c3ccc(-n4c(-c5noc(C)n5)c(Cl)c5ccccc54)cc3)CC2)on1 [Example 41, (R)-3-Methoxy-isoxazole-5-carboxylic acid [1-(1-{4-[3-chloro-2-(5-methyl-[1,2,4]oxadiazol-3-yl)-indol-1-yl]-phenyl}-ethylcarbamoyl)-cyclopropyl]-amide]
[1]
  pIC50: > 7.70
[2]
  pKi: > 7.70

## CCCc1cc(C(=O)NC2(C(=O)NCc3ccc(-n4c(-c5noc(C)n5)c(Cl)c5ccccc54)cc3)CC2)on1 [Example 42, 3-Propyl-isoxazole-5-carboxylic acid (1-{4-[3-chloro-2-(5-methyl-[1,2,4]oxadiazol-3-yl)-indol-1-yl]-benzylcarbamoyl}-cyclopropyl)-amide]
[1]
  pIC50: > 7.70
[2]
  pKi: > 7.70

## COc1cc(C(=O)NC2(C(=O)NCc3ccc(-n4c(C#N)cc5cc(Cl)ccc54)cc3)CC2)on1 [Example 43, 3-Methoxy-isoxazole-5-carboxylic acid {1-[4-(5-chloro-2-cyano-indol-1-yl)-benzylcarbamoyl]-cyclopropyl}-amide]
[1]
  pIC50: 7.00 to 7.70
[2]
  pKi: > 7.70

## COc1ccc2c(c1)cc(C#N)n2-c1ccc(CNC(=O)C2(NC(=O)c3cncc(C(F)(F)F)c3)CC2)cc1 [Example 44, N-{1-[4-(2-Cyano-5-methoxy-indol-1-yl)-benzylcarbamoyl]-cyclopropyl}-5-trifluoromethyl-nicotinamide]
[1]
  pIC50: > 7.70
[2]
  pKi: > 7.70

## N#Cc1cc2cc(F)ccc2n1-c1ccc(CNC(=O)C2(NC(=O)c3cncc(C(F)(F)F)c3)CC2)cc1 [Example 45, N-{1-[4-(2-Cyano-5-fluoro-indol-1-yl)-benzylcarbamoyl]-cyclopropyl}-5-trifluoromethyl-nicotinamide]
[1]
  pIC50: > 7.70
[2]
  pKi: > 7.70

## Cc1nc(-c2cc3cc(F)ccc3n2-c2ccc(CNC(=O)C3(NC(=O)c4cncc(C(F)(F)F)c4)CC3)cc2)no1 [Example 46, N-(1-{4-[5-Fluoro-2-(5-methyl-[1,2,4]oxadiazol-3-yl)-indol-1-yl]-benzylcarbamoyl}-cyclopropyl)-5-trifluoromethyl-nicotinamide]
[1]
  pIC50: > 7.70
[2]
  pKi: > 7.70

## COc1cc(C(=O)NC2(C(=O)NCc3ccc(-n4c(-c5noc(C)n5)cc5cc(F)ccc54)cc3)CC2)on1 [Example 47, 3-Methoxy-isoxazole-5-carboxylic acid (1-{4-[5-fluoro-2-(5-methyl-[1,2,4]oxadiazol-3-yl)-indol-1-yl]-benzylcarbamoyl}-cyclopropyl)-amide]
[1]
  pIC50: > 7.70
[2]
  pKi: > 7.70

## COc1ccc2c(c1)cc(C#N)n2-c1ccc(CNC(=O)C2(NC(=O)c3cc(OC)no3)CC2)cc1 [Example 48, 3-Methoxy-isoxazole-5-carboxylic acid {1-[4-(2-cyano-5-methoxy-indol-1-yl)-benzylcarbamoyl]-cyclopropyl}-amide]
[1]
  pIC50: > 7.70
[2]
  pKi: > 7.70

## COc1cc(C(=O)NC2(C(=O)NCc3ccc(-n4c(C#N)cc5cc(F)ccc54)cc3)CC2)on1 [Example 49, 3-Methoxy-isoxazole-5-carboxylic acid {1-[4-(2-cyano-5-fluoro-indol-1-yl)-benzylcarbamoyl]-cyclopropyl}-amide]
[1]
  pIC50: > 7.70
[2]
  pKi: > 7.70

## COc1ccc2c(c1)c(Cl)c(-c1nc(C)no1)n2-c1ccc(CNC(=O)C2(NC(=O)c3cncc(C(F)(F)F)c3)CC2)cc1 [Example 50, N-(1-{4-[3-Chloro-5-methoxy-2-(3-methyl-[1,2,4]oxadiazol-5-yl)-indol-1-yl]-benzyl-carbamoyl}-cyclopropyl)-5-trifluoromethyl-nicotinamide]
[1]
  pIC50: > 7.70
[2]
  pKi: > 7.70

## COc1ccc2c(c1)c(Cl)c(-c1nc(C)no1)n2-c1ccc(CNC(=O)C2(NC(=O)c3cc(OC)no3)CC2)cc1 [Example 51, 3-Methoxy-isoxazole-5-carboxylic acid (1-{4-[3-chloro-5-methoxy-2-(3-methyl-[1,2,4]oxadiazol-5-yl)-indol-1-yl]-benzylcarbamoyl}-cyclopropyl)-amide]
[1]
  pIC50: > 7.70
[2]
  pKi: > 7.70
